# Assay results reported in patent publication US20240285773A1, “METHODS OF TREATING MYELODYSPLASTIC SYNDROME AND MONITORING THE TREATMENT” (Geron Corporation, priority 2023, published 2024).
# Several values for one entry are separate records, joined by “and”; a condition that tells them apart may be missing. Equal entries are not always repeated. [nps] = N3'→P5' thiophosphoramidate linkage; {Palm} = palmitoyl lipid
# System: RBC transfusion-dependent patients with IPSS low or intermediate-1 risk MDS
# Test: Phase 3 trial: RBC transfusion independence (RBC-TI)
# Type: in vivo, human
# Conditions: for TI duration, median: Kaplan-Meier
# Description: Patients were randomly assigned (based on a computer-generated schedule) in a 2:1 ratio to receive imetelstat or placebo, administered intravenously every 4 weeks until treatment discontinuation; crossover was not allowed. Randomization was stratified by prior RBC transfusion burden (≥4 to ≤6 or >6 units over an 8-week period during 16 weeks prior to randomization) and IPSS risk group (low or intermediate-1 risk). The starting dose of imetelstat was 7.5 mg/kg every four weeks. If a patient developed grade 3 or 4 hematologic and nonhematologic toxicities, dosing was held and, if necessary, reduced (Tables 2-4).
# The primary end point was rate of RBC-TI for 8 consecutive weeks or longer. Key secondary end points included rate of 24-week TI, duration of TI, and the rate of hematologic response (hematologic improvement-erythroid [HI-E], based on modified International Working Group [IWG] 2006 criteria, and HI-E per revised IWG 2018). Additional secondary end points included relative change in number of RBC transfusions received by patients, relative change in hemoglobin, and safety. The changes in mutational status and in patient-reported fatigue over time (assessed by the Functional Assessment of Chronic Illness Therapy [FACIT] Fatigue Scale) were exploratory end points. Subgroup analyses were performed including baseline presence or absence of RS, prior RBC transfusion burden (≥4 to ≤6 or >6 RBC units/8-weeks during a 16-week period prior to randomization), and low or intermediate-1 IPSS risk categories. Subgroup analyses were also performed, including baseline mutation status as well as telomerase activity (TA), telomere lengths (TL), and human telomerase reverse transcriptase (hTERT) levels. Peripheral blood hematology, bone marrow evaluation, mutation assessment, and cytogenetic evaluation were performed centrally and responses assessed by an independent review committee (IRC). Rate of 1-year RBC-TI was reported as a post hoc analysis.
# The data cutoff date for this primary analysis was 1 year after the last patient was randomized. All the efficacy analyses for primary and key secondary end points were conducted in the intent-to-treat population. […] The percentages of patients with a response for the two treatment groups were compared with a stratified Cochran-Mantel-Haenszel test at a two-sided significance level of 0.05 adjusting for stratification factors, prior RBC transfusion burden, and IPSS risk category low or intermediate-1. Multiplicity was accounted for by a sequential gatekeeping approach for the primary and key secondary end points, which were tested sequentially in the prespecified order of 8-week TI, followed by 24-week TI. Durations of RBC-TI were calculated by Kaplan-Meier method. Safety analyses were conducted in the safety population (all patients who received ≥1 dose of trial medication).
# Treatment: In the patients from imetelstat treatment group, imetelstat sodium was administered as a 2-hour IV infusion every 4 weeks at 7.5 mg/kg. Supportive care, including RBC and platelet transfusions, myeloid growth factors (e.g., G-CSF (granulocyte colony stimulating factor)), and iron chelation therapy was administered as needed on study per investigator discretion. Control group received corresponding treatment without imetelstat.
# End points and Analysis: • Primary end point: 8-week RBC TI. Proportion of patients without any RBC transfusion for at least eight consecutive weeks since entry to the trial (8-week TI). • Key secondary end points: • 24-week RBC TI; proportion of patients without any RBC transfusion for at least 24 consecutive weeks since entry to the trial (24-week TI). • Duration of TI; • Hematologic improvement-Erythroid (HI-E).
# The 8-week RBC-TI rate was the proportion of patients without any RBC transfusion during any consecutive 8 weeks (56 days) starting from Study Day 1 until subsequent anti-cancer therapy, if any. […]
# [1] = mutated transcription regulation genes
# [2] = poor-prognosis genes mutated at baseline
substance,measurement,setting,value
"Imetelstat: first-in-class telomerase inhibitor; synthetic lipid-conjugated 13-mer oligonucleotide N3′→P5′-thiophosphoramidate (TAGGGTTAGACAA; all [nps], 5' {Palm}, sugars by position and methylation of C not given here)",Difference in median RBC-TI duration vs placebo,8-week TI responders,38.3 week
same,"Hazard ratio, duration of RBC-TI vs placebo",8-week TI responders,0.23
same,"TI duration, median",8-week TI responders,51.6 weeks
same,"TI duration, median","8-week TI responders, listed as imetelstat",51.6 weeks and 52 weeks
same,≥8-week TI rate,>1 baseline mutation,42.7%
same,≥24-week TI rate,>1 baseline mutation,26.7%
same,≥8-week TI rate,>2 baseline mutations,45.5%
same,≥24-week TI rate,>2 baseline mutations,33.3%
same,≥8-week TI rate,>3 baseline mutations,55.6%
same,≥24-week TI rate,>3 baseline mutations,33.3%
same,8-week TI response,ASXL1 mutations,5/18
same,8-week TI response rate,ASXL1 mutations,(27.8) %
same,≥24-week TI rate,ASXL1 mutations,11.1%
same,8-week TI response rate,"ASXL1 mutations, listed as imetelstat",27.8%
same,≥8-week TI rate,CUX1 mutations,35.7%
same,≥24-week TI rate,CUX1 mutations,14.3%
same,≥8-week TI rate,DNMT3A mutations,31.6%
same,≥24-week TI rate,DNMT3A mutations,26.3%
same,8-week TI response,ETV6 mutations,1/2
same,8-week TI response rate,ETV6 mutations,(50.0) %
same,8-week TI response rate,"ETV6 mutations, listed as imetelstat",50%
same,8-week RBC-TI rate,IPSS intermediate-1 risk,40%
same,8-week RBC-TI rate,IPSS low risk,40%
same,8-week TI rate,ITT N=118,39.8% and 40%
same,16-week TI rate,ITT N=118,31.4%
same,"16-week TI, patients",ITT N=118,37 n
same,24-week TI rate,ITT N=118,28%
same,"24-week TI, patients",ITT N=118,33 n
same,≥1-year TI rate,ITT N=118,17.8% and 18%
same,"≥1-year TI, patients",ITT N=118,21 n
same,"8-week TI, patients","ITT N=118, 7.5 mg/kg IV every 4 weeks",47 n
same,8-week TI response,RUNX1 mutations,0/2
same,8-week TI response rate,RUNX1 mutations,(0) %
same,≥8-Week RBC-TI,SF3B1 hot-spot A744P,100%
same,≥8-Week RBC-TI,SF3B1 hot-spot E622D,25.0%
same,≥8-Week RBC-TI,SF3B1 hot-spot E783K,50.0%
same,≥8-Week RBC-TI,SF3B1 hot-spot H662Q/N/D/Y,58.3%
same,≥8-Week RBC-TI,SF3B1 hot-spot K666R/T/Q/N,33.3%
same,≥8-Week RBC-TI,SF3B1 hot-spot K700E,43.9%
same,≥8-Week RBC-TI,SF3B1 hot-spot R625C/L/G,57.1%
same,≥8-Week RBC-TI,SF3B1 hot-spot T663P,100%
same,≥8-week TI rate,TET2 mutations,50%
same,≥24-week TI rate,TET2 mutations,40%
same,8-week TI response,TP53 mutations,2/2
same,8-week TI response rate,TP53 mutations,(100) %
same,≥8-week TI rate,baseline SF3B1 mutations,48.8%
same,≥24-week TI rate,baseline SF3B1 mutations,35.4%
same,8-week RBC-TI responders with a single continuous RBC-TI period,in vivo,83%
same,8-week TI responders who went on to achieve 24-week TI,in vivo,Approximately 70%
same,≥1-year TI among ≥8-week TI responders,in vivo,44.7% and 45%
same,≥1-year TI among ≥24-week TI responders,in vivo,63.6% and 64%
same,≥8-week TI rate,mutated RNA spliceosome genes,43.8%
same,≥24-week TI rate,mutated RNA spliceosome genes,30.2%
same,≥8-week TI rate,mutated epigenetic modifiers,37.7%
same,≥24-week TI rate,mutated epigenetic modifiers,27.5%
same,≥8-week TI rate,mutated receptors/kinases,80.0%
same,≥24-week TI rate,mutated receptors/kinases,80.0%
same,≥8-week TI rate,[1],40.0%
same,≥24-week TI rate,[1],20.0%
same,Median TI duration,patients who achieved 24-week TI,80.0 weeks
same,8-week RBC-TI rate,patients with RS,45%
same,24-week RBC-TI rate,patients with RS,33%
same,Difference vs placebo in TI ≥24 weeks,patients with RS,28%
same,"8-week RBC-TI, patients",patients with RS (of 73),33 patients
same,8-week RBC-TI rate,patients without RS,32%
same,24-week RBC-TI rate,patients without RS,20%
same,Difference vs placebo in TI ≥24 weeks,patients without RS,21%
same,"8-week RBC-TI, patients",patients without RS (of 44),14 patients
same,8-week TI response,[2],7/22
same,8-week TI response rate,[2],(31.8) %
same,≥24-week TI rate,[2],9.1%
same,8-week TI response rate,"poor-prognosis genes mutated at baseline, listed as imetelstat",31.8%
same,8-week RBC-TI rate,prior burden >6 units/8 weeks,34%
same,"8-week RBC-TI, patients",prior burden >6 units/8 weeks (of 56),19 patients
same,8-week RBC-TI rate,prior burden ≥4 to ≤6 units/8 weeks,45%
same,"8-week RBC-TI, patients",prior burden ≥4 to ≤6 units/8 weeks (of 62),28 patients
same,Median duration of TI,≥1-year TI responders,123 weeks
